Measured values as given in ChEMBL document CHEMBL5303573, “Mapping human microbiome drug metabolism by gut bacteria and their genes” (Nature, 2019).

Test: The drug is tested on Alistipes indistinctus strain: DSM22520 for biotransformation. The drug concentrations were measured before and after a 12-h incubation by liquid-chromatography-coupled mass spectrometry (LC–MS)
Settings: 2 µM

| Structure (SMILES) | Bacterial Biotransformation |
| --- | --- |
| CNC(=C[N+](=O)[O-])NCCSCc1csc(CN(C)C)n1 [NIZATIDINE] | Compound metabolized |

Test: The drug is tested on Bacteroides coprophilus strain: DSM18228 for biotransformation. The drug concentrations were measured before and after a 12-h incubation by liquid-chromatography-coupled mass spectrometry (LC–MS)
Settings: 2 µM

| Structure (SMILES) | Bacterial Biotransformation |
| --- | --- |
| CNC(=C[N+](=O)[O-])NCCSCc1csc(CN(C)C)n1 [NIZATIDINE] | Compound NOT metabolized |

Test: The drug is tested on Bacteroides dorei strain: DSM17855 for biotransformation. The drug concentrations were measured before and after a 12-h incubation by liquid-chromatography-coupled mass spectrometry (LC–MS)
Settings: phocaeicola dorei, 2 µM

| Structure (SMILES) | Bacterial Biotransformation |
| --- | --- |
| CNC(=C[N+](=O)[O-])NCCSCc1csc(CN(C)C)n1 [NIZATIDINE] | Compound metabolized |

Test: The drug is tested on Bacteroides ovatus strain: ATCC8483 for biotransformation. The drug concentrations were measured before and after a 12-h incubation by liquid-chromatography-coupled mass spectrometry (LC–MS)
Settings: 2 µM

| Structure (SMILES) | Bacterial Biotransformation |
| --- | --- |
| CNC(=C[N+](=O)[O-])NCCSCc1csc(CN(C)C)n1 [NIZATIDINE] | Compound NOT metabolized |

Test: The drug is tested on Bacteroides pectinophilus strain: ATCC43243 for biotransformation. The drug concentrations were measured before and after a 12-h incubation by liquid-chromatography-coupled mass spectrometry (LC–MS)
Settings: 2 µM

| Structure (SMILES) | Bacterial Biotransformation |
| --- | --- |
| CNC(=C[N+](=O)[O-])NCCSCc1csc(CN(C)C)n1 [NIZATIDINE] | Compound metabolized |

Test: The drug is tested on Bacteroides uniformis strain: ATCC8492 for biotransformation. The drug concentrations were measured before and after a 12-h incubation by liquid-chromatography-coupled mass spectrometry (LC–MS)
Settings: 2 µM

| Structure (SMILES) | Bacterial Biotransformation |
| --- | --- |
| CNC(=C[N+](=O)[O-])NCCSCc1csc(CN(C)C)n1 [NIZATIDINE] | Compound NOT metabolized |

Test: The drug is tested on Parabacteroides merdae strain: ATCC43184 for biotransformation. The drug concentrations were measured before and after a 12-h incubation by liquid-chromatography-coupled mass spectrometry (LC–MS)
Settings: 2 µM

| Structure (SMILES) | Bacterial Biotransformation |
| --- | --- |
| CNC(=C[N+](=O)[O-])NCCSCc1csc(CN(C)C)n1 [NIZATIDINE] | Compound NOT metabolized |

Test: The drug is tested on Anaerococcus hydrogenalis strain: DSM7454 for biotransformation. The drug concentrations were measured before and after a 12-h incubation by liquid-chromatography-coupled mass spectrometry (LC–MS)
Settings: 2 µM

| Structure (SMILES) | Bacterial Biotransformation |
| --- | --- |
| CNC(=C[N+](=O)[O-])NCCSCc1csc(CN(C)C)n1 [NIZATIDINE] | Compound metabolized |

Test: The drug is tested on Anaerotruncus colihominis strain: DSM17241 for biotransformation. The drug concentrations were measured before and after a 12-h incubation by liquid-chromatography-coupled mass spectrometry (LC–MS)
Settings: 2 µM

| Structure (SMILES) | Bacterial Biotransformation |
| --- | --- |
| CNC(=C[N+](=O)[O-])NCCSCc1csc(CN(C)C)n1 [NIZATIDINE] | Compound metabolized |

Test: The drug is tested on Clostridium ramosum strain: DSM1402 for biotransformation. The drug concentrations were measured before and after a 12-h incubation by liquid-chromatography-coupled mass spectrometry (LC–MS)
Settings: thomasclavelia ramosa, 2 µM

| Structure (SMILES) | Bacterial Biotransformation |
| --- | --- |
| CNC(=C[N+](=O)[O-])NCCSCc1csc(CN(C)C)n1 [NIZATIDINE] | Compound metabolized |

Test: The drug is tested on Enterococcus faecalis strain: V583 for biotransformation. The drug concentrations were measured before and after a 12-h incubation by liquid-chromatography-coupled mass spectrometry (LC–MS)
Settings: 2 µM

| Structure (SMILES) | Bacterial Biotransformation |
| --- | --- |
| CNC(=C[N+](=O)[O-])NCCSCc1csc(CN(C)C)n1 [NIZATIDINE] | Compound metabolized |

Test: The drug is tested on Eubacterium rectale strain: ATCC33656 for biotransformation. The drug concentrations were measured before and after a 12-h incubation by liquid-chromatography-coupled mass spectrometry (LC–MS)
Settings: agathobacter rectalis, 2 µM

| Structure (SMILES) | Bacterial Biotransformation |
| --- | --- |
| CNC(=C[N+](=O)[O-])NCCSCc1csc(CN(C)C)n1 [NIZATIDINE] | Compound metabolized |

Test: The drug is tested on Ruminococcus gnavus strain: ATCC29149 for biotransformation. The drug concentrations were measured before and after a 12-h incubation by liquid-chromatography-coupled mass spectrometry (LC–MS)
Settings: mediterraneibacter gnavus, 2 µM

| Structure (SMILES) | Bacterial Biotransformation |
| --- | --- |
| CNC(=C[N+](=O)[O-])NCCSCc1csc(CN(C)C)n1 [NIZATIDINE] | Compound metabolized |

Test: The drug is tested on Ruminococcus torques strain: ATCC27756 for biotransformation. The drug concentrations were measured before and after a 12-h incubation by liquid-chromatography-coupled mass spectrometry (LC–MS)
Assay type: ADME
Parameters: dose 2 uM, timepoint 0 vs 12 hours
Settings: 2 µM

| Structure (SMILES) | Bacterial Biotransformation |
| --- | --- |
| CNC(=C[N+](=O)[O-])NCCSCc1csc(CN(C)C)n1 [NIZATIDINE] | Compound metabolized |

Test: The drug is tested on Edwardsiella tarda strain: ATCC23685 for biotransformation. The drug concentrations were measured before and after a 12-h incubation by liquid-chromatography-coupled mass spectrometry (LC–MS)
Settings: 2 µM

| Structure (SMILES) | Bacterial Biotransformation |
| --- | --- |
| CNC(=C[N+](=O)[O-])NCCSCc1csc(CN(C)C)n1 [NIZATIDINE] | Compound metabolized |

Test: The drug is tested on Providencia stuartii strain: ATCC25827 for biotransformation. The drug concentrations were measured before and after a 12-h incubation by liquid-chromatography-coupled mass spectrometry (LC–MS)
Settings: 2 µM

| Structure (SMILES) | Bacterial Biotransformation |
| --- | --- |
| CNC(=C[N+](=O)[O-])NCCSCc1csc(CN(C)C)n1 [NIZATIDINE] | Compound metabolized |

Settings: bifidobacterium adolescentis, 12 h, 2 µM
Description: The drug is tested on Bifidobacterium adolescentis strain: ATCC 15703 for biotransformation. The drug concentrations were measured before and after a 12-h incubation by liquid-chromatography-coupled mass spectrometry (LC–MS)

| Structure (SMILES) | Bacterial Biotransformation |
| --- | --- |
| CNC(=C[N+](=O)[O-])NCCSCc1csc(CN(C)C)n1 [NIZATIDINE] | Compound metabolized |

Settings: bacteroides fragilis, 12 h, 2 µM
Description: The drug is tested on Bacteroides fragilis strain: NCTC 9343 for biotransformation. The drug concentrations were measured before and after a 12-h incubation by liquid-chromatography-coupled mass spectrometry (LC–MS)

| Structure (SMILES) | Bacterial Biotransformation |
| --- | --- |
| CNC(=C[N+](=O)[O-])NCCSCc1csc(CN(C)C)n1 [NIZATIDINE] | Compound metabolized |

Settings: parabacteroides johnsonii, 12 h, 2 µM
Description: The drug is tested on Parabacteroides johnsonii strain: DSM18315 for biotransformation. The drug concentrations were measured before and after a 12-h incubation by liquid-chromatography-coupled mass spectrometry (LC–MS)

| Structure (SMILES) | Bacterial Biotransformation |
| --- | --- |
| CNC(=C[N+](=O)[O-])NCCSCc1csc(CN(C)C)n1 [NIZATIDINE] | Compound metabolized |

Settings: limosilactobacillus reuteri cf48-3a, 12 h, 2 µM
Description: The drug is tested on Lactobacillus reuteri CF48-3A strain: BEI HM-102 for biotransformation. The drug concentrations were measured before and after a 12-h incubation by liquid-chromatography-coupled mass spectrometry (LC–MS)

| Structure (SMILES) | Bacterial Biotransformation |
| --- | --- |
| CNC(=C[N+](=O)[O-])NCCSCc1csc(CN(C)C)n1 [NIZATIDINE] | Compound NOT metabolized |
